Values after ≈ are worked out from the molar mass of the structure shown. Active and inactive are the calls of the source. No cut-off for these calls is given here.

In the first experiment the test system is Candida albicans. The experiment in a line: Antifungal activity against Candida albicans ATCC 24433 by broth dilution method. The format is functional. A general note: In broth dilution the organism is exposed to a series of concentrations in liquid medium.
Usually MIC50 stands for an inhibitory concentration at the 50% level, which refers to growth in some studies and to a panel of isolates in others. On to `COc1cc(C=O)ccc1OCC(O)(Cn1cncn1)c1ccc(F)cc1F` (racemic), for which the MIC50 came to 0.5 mg/L (≈ 1.28 µM).

Take `O=C1OC(c2ccccc2)=N/C1=C\c1ccc(OCC(O)(Cn2cncn2)c2ccc(F)cc2F)cc1` (racemic): the MIC50 was 4 mg/L (≈ 7.96 µM).

`CC1OC(=O)C(c2ccc(OCC(O)(Cn3cncn3)c3ccc(F)cc3F)cc2)=C1c1ccc(F)cc1F` (racemic) returned an MIC50 of 1 mg/L (≈ 1.85 µM).

For `OC(Cn1cncn1)(Cn1cncn1)c1ccc(F)cc1F` [FLUCONAZOLE], the MIC50 was found to be 0.25 mg/L (≈ 0.816 µM).

In a further experiment the test system is Nakaseomyces glabratus. Put plainly: Antifungal activity against Candida glabrata ATCC 90030 by broth dilution method. Type of experiment: functional.
`COc1cc(C=O)ccc1OCC(O)(Cn1cncn1)c1ccc(F)cc1F` (racemic) registered an MIC50 of 1 mg/L (≈ 2.57 µM).

`O=C1OC(c2ccccc2)=N/C1=C\c1ccc(OCC(O)(Cn2cncn2)c2ccc(F)cc2F)cc1` (racemic) gave an MIC50 of 4 mg/L (≈ 7.96 µM).

The molecule `CC1OC(=O)C(c2ccc(OCC(O)(Cn3cncn3)c3ccc(F)cc3F)cc2)=C1c1ccc(F)cc1F` (racemic) had an MIC50 of 1 mg/L (≈ 1.85 µM).

The molecule `OC(Cn1cncn1)(Cn1cncn1)c1ccc(F)cc1F` [FLUCONAZOLE] showed an MIC50 of 1 mg/L (≈ 3.27 µM).

The subject of the next experiment is Pichia kudriavzevii. The experiment in a line: Antifungal activity against Candida krusei ATCC 6258 by broth dilution method. The format is functional.
Molecule `COc1cc(C=O)ccc1OCC(O)(Cn1cncn1)c1ccc(F)cc1F` (racemic) came in with an MIC50 of 128 mg/L (≈ 329 µM).

Consider `OC(Cn1cncn1)(Cn1cncn1)c1ccc(F)cc1F` [FLUCONAZOLE], for which the MIC50 was 32 mg/L (≈ 104 µM).

The subject of another experiment is Candida tropicalis. The experiment in a line: Antifungal activity against Candida tropicalis ATCC 750 by broth dilution method. Type of experiment: functional.
`COc1cc(C=O)ccc1OCC(O)(Cn1cncn1)c1ccc(F)cc1F` (racemic) gave an MIC50 of 8 mg/L (≈ 20.5 µM).

With `CC1OC(=O)C(c2ccc(OCC(O)(Cn3cncn3)c3ccc(F)cc3F)cc2)=C1c1ccc(F)cc1F` (racemic), the MIC50 turned out to be 8 mg/L (≈ 14.8 µM).

`OC(Cn1cncn1)(Cn1cncn1)c1ccc(F)cc1F` [FLUCONAZOLE]: the MIC50 turned out to be 1 mg/L (≈ 3.27 µM).

Another experiment deals with Candida albicans. The experiment in a line: Antifungal activity against Candida albicans ATCC 24433 at 4 ug/ml by broth dilution method. Type of experiment: functional, organism-based.
For the molecule `O=C1OCC(c2ccc(F)cc2F)=C1c1ccc(Cl)c(Cl)c1`, the outcome was inactive.

Consider `COc1cc(/C=C2\N=C(c3ccccc3)OC2=O)ccc1OCC(O)(Cn1cncn1)c1ccc(F)cc1F` (racemic), for which the result was inactive.

As to `O=C1O/C(=C\c2ccc(OCC(O)(Cn3cncn3)c3ccc(F)cc3F)cc2)C(c2ccc(F)cc2F)=C1c1ccc(Cl)c(Cl)c1` (racemic), the result was inactive.

For `O=C1O/C(=C\c2ccc(OCC(O)(Cn3cncn3)c3ccc(F)cc3F)cc2)C(c2ccc(F)cc2F)=C1c1ccc(Cl)cc1` (racemic), the result was inactive.

Another experiment has as its system Nakaseomyces glabratus. Put plainly: Antifungal activity against Candida glabrata ATCC 90030 at 4 ug/ml by broth dilution method. The format is functional, organism-based.
Take `O=C1OCC(c2ccc(F)cc2F)=C1c1ccc(Cl)c(Cl)c1`: the result was inactive.

Turning to `COc1cc(/C=C2\N=C(c3ccccc3)OC2=O)ccc1OCC(O)(Cn1cncn1)c1ccc(F)cc1F` (racemic), the result was inactive.

`O=C1O/C(=C\c2ccc(OCC(O)(Cn3cncn3)c3ccc(F)cc3F)cc2)C(c2ccc(F)cc2F)=C1c1ccc(Cl)c(Cl)c1` (racemic): the result was inactive.

Turning to `O=C1O/C(=C\c2ccc(OCC(O)(Cn3cncn3)c3ccc(F)cc3F)cc2)C(c2ccc(F)cc2F)=C1c1ccc(Cl)cc1` (racemic), the result was inactive.

A further experiment concerns Pichia kudriavzevii. Put plainly: Antifungal activity against Candida krusei ATCC 6258 at 4 ug/ml by broth dilution method. Type of experiment: functional, organism-based.
For the molecule `O=C1OCC(c2ccc(F)cc2F)=C1c1ccc(Cl)c(Cl)c1`, the result was inactive.

As to `O=C1OC(c2ccccc2)=N/C1=C\c1ccc(OCC(O)(Cn2cncn2)c2ccc(F)cc2F)cc1` (racemic), the result was inactive.

On to `COc1cc(/C=C2\N=C(c3ccccc3)OC2=O)ccc1OCC(O)(Cn1cncn1)c1ccc(F)cc1F` (racemic), for which the result was inactive.

Regarding `O=C1O/C(=C\c2ccc(OCC(O)(Cn3cncn3)c3ccc(F)cc3F)cc2)C(c2ccc(F)cc2F)=C1c1ccc(Cl)c(Cl)c1` (racemic), the result was inactive.

As for `O=C1O/C(=C\c2ccc(OCC(O)(Cn3cncn3)c3ccc(F)cc3F)cc2)C(c2ccc(F)cc2F)=C1c1ccc(Cl)cc1` (racemic), the outcome was inactive.

Another experiment concerns Pichia kudriavzevii. Put plainly: Antifungal activity against Candida krusei ATCC 6258 at 8 ug/ml by broth dilution method. Type of experiment: functional, organism-based.
As for `CC1OC(=O)C(c2ccc(OCC(O)(Cn3cncn3)c3ccc(F)cc3F)cc2)=C1c1ccc(F)cc1F` (racemic), the result was inactive.

A further experiment concerns Candida tropicalis. Put plainly: Antifungal activity against Candida tropicalis ATCC 750 at 4 ug/ml by broth dilution method. The format is functional, organism-based.
For the molecule `O=C1OCC(c2ccc(F)cc2F)=C1c1ccc(Cl)c(Cl)c1`, the result was inactive.

With `O=C1OC(c2ccccc2)=N/C1=C\c1ccc(OCC(O)(Cn2cncn2)c2ccc(F)cc2F)cc1` (racemic), the outcome was inactive.

`COc1cc(/C=C2\N=C(c3ccccc3)OC2=O)ccc1OCC(O)(Cn1cncn1)c1ccc(F)cc1F` (racemic): the outcome was inactive.

In the case of `O=C1O/C(=C\c2ccc(OCC(O)(Cn3cncn3)c3ccc(F)cc3F)cc2)C(c2ccc(F)cc2F)=C1c1ccc(Cl)c(Cl)c1` (racemic), the outcome was inactive.

For the molecule `O=C1O/C(=C\c2ccc(OCC(O)(Cn3cncn3)c3ccc(F)cc3F)cc2)C(c2ccc(F)cc2F)=C1c1ccc(Cl)cc1` (racemic), the outcome was inactive.

A further experiment relates to Cryptococcus neoformans. The experiment in a line: Antifungal activity against Cryptococcus neoformans ATCC 34664 by broth dilution method. The format is functional.
`COc1cc(C=O)ccc1OCC(O)(Cn1cncn1)c1ccc(F)cc1F` (racemic) returned an MIC50 of 16 mg/L (≈ 41.1 µM).

`CC1OC(=O)C(c2ccc(OCC(O)(Cn3cncn3)c3ccc(F)cc3F)cc2)=C1c1ccc(F)cc1F` (racemic) registered an MIC50 of 4 mg/L (≈ 7.41 µM).

As for `OC(Cn1cncn1)(Cn1cncn1)c1ccc(F)cc1F` [FLUCONAZOLE], the MIC50 was 2 mg/L (≈ 6.53 µM).

In a further experiment the test system is Cryptococcus neoformans. The experiment in a line: Antifungal activity against Cryptococcus neoformans ATCC 34664 at 4 ug/ml by broth dilution method. Type of experiment: functional, organism-based.
With `O=C1OCC(c2ccc(F)cc2F)=C1c1ccc(Cl)c(Cl)c1`, the result was inactive.

As for `O=C1OC(c2ccccc2)=N/C1=C\c1ccc(OCC(O)(Cn2cncn2)c2ccc(F)cc2F)cc1` (racemic), the outcome was inactive.

With `COc1cc(/C=C2\N=C(c3ccccc3)OC2=O)ccc1OCC(O)(Cn1cncn1)c1ccc(F)cc1F` (racemic), the result was inactive.

For `O=C1O/C(=C\c2ccc(OCC(O)(Cn3cncn3)c3ccc(F)cc3F)cc2)C(c2ccc(F)cc2F)=C1c1ccc(Cl)c(Cl)c1` (racemic), the result was inactive.

On to `O=C1O/C(=C\c2ccc(OCC(O)(Cn3cncn3)c3ccc(F)cc3F)cc2)C(c2ccc(F)cc2F)=C1c1ccc(Cl)cc1` (racemic), for which the result was inactive.

The next experiment has as its system Aspergillus niger. The experiment in a line: Antifungal activity against Aspergillus niger ATCC 16404 at 128 ug/ml by broth dilution method. Type of experiment: functional, organism-based.
With `COc1cc(C=O)ccc1OCC(O)(Cn1cncn1)c1ccc(F)cc1F` (racemic), the outcome was inactive.

With `OC(Cn1cncn1)(Cn1cncn1)c1ccc(F)cc1F` [FLUCONAZOLE], the outcome was inactive.

The subject of a further experiment is Aspergillus niger. The experiment in a line: Antifungal activity against Aspergillus niger ATCC 16404 at 4 ug/ml by broth dilution method. The format is functional, organism-based.
With `O=C1OCC(c2ccc(F)cc2F)=C1c1ccc(Cl)c(Cl)c1`, the result was inactive.

With `O=C1OC(c2ccccc2)=N/C1=C\c1ccc(OCC(O)(Cn2cncn2)c2ccc(F)cc2F)cc1` (racemic), the result was inactive.

Consider `COc1cc(/C=C2\N=C(c3ccccc3)OC2=O)ccc1OCC(O)(Cn1cncn1)c1ccc(F)cc1F` (racemic), for which the outcome was inactive.

Regarding `O=C1O/C(=C\c2ccc(OCC(O)(Cn3cncn3)c3ccc(F)cc3F)cc2)C(c2ccc(F)cc2F)=C1c1ccc(Cl)c(Cl)c1` (racemic), the outcome was inactive.

As for `O=C1O/C(=C\c2ccc(OCC(O)(Cn3cncn3)c3ccc(F)cc3F)cc2)C(c2ccc(F)cc2F)=C1c1ccc(Cl)cc1` (racemic), the result was inactive.

The subject of a further experiment is Aspergillus niger. The experiment in a line: Antifungal activity against Aspergillus niger ATCC 16404 at 8 ug/ml by broth dilution method. The format is functional, organism-based.
On to `CC1OC(=O)C(c2ccc(OCC(O)(Cn3cncn3)c3ccc(F)cc3F)cc2)=C1c1ccc(F)cc1F` (racemic), for which the outcome was inactive.

Another experiment relates to Aspergillus fumigatus. Put plainly: Antifungal activity against Aspergillus fumigatus ATCC 46645 at 128 ug/ml by broth dilution method. Type of experiment: functional, organism-based.
As to `COc1cc(C=O)ccc1OCC(O)(Cn1cncn1)c1ccc(F)cc1F` (racemic), the outcome was inactive.

In the case of `OC(Cn1cncn1)(Cn1cncn1)c1ccc(F)cc1F` [FLUCONAZOLE], the outcome was inactive.

The subject of the next experiment is Aspergillus fumigatus. Put plainly: Antifungal activity against Aspergillus fumigatus ATCC 46645 at 4 ug/ml by broth dilution method. The format is functional, organism-based.
As to `O=C1OCC(c2ccc(F)cc2F)=C1c1ccc(Cl)c(Cl)c1`, the result was inactive.

Consider `O=C1OC(c2ccccc2)=N/C1=C\c1ccc(OCC(O)(Cn2cncn2)c2ccc(F)cc2F)cc1` (racemic), for which the result was inactive.

Consider `COc1cc(/C=C2\N=C(c3ccccc3)OC2=O)ccc1OCC(O)(Cn1cncn1)c1ccc(F)cc1F` (racemic), for which the result was inactive.

As for `O=C1O/C(=C\c2ccc(OCC(O)(Cn3cncn3)c3ccc(F)cc3F)cc2)C(c2ccc(F)cc2F)=C1c1ccc(Cl)c(Cl)c1` (racemic), the outcome was inactive.

For the molecule `O=C1O/C(=C\c2ccc(OCC(O)(Cn3cncn3)c3ccc(F)cc3F)cc2)C(c2ccc(F)cc2F)=C1c1ccc(Cl)cc1` (racemic), the outcome was inactive.

For the next experiment, the system named is Aspergillus fumigatus. Put plainly: Antifungal activity against Aspergillus fumigatus ATCC 46645 at 8 ug/ml by broth dilution method. The format is functional, organism-based.
Turning to `CC1OC(=O)C(c2ccc(OCC(O)(Cn3cncn3)c3ccc(F)cc3F)cc2)=C1c1ccc(F)cc1F` (racemic), the outcome was inactive.

The next experiment concerns Fusarium proliferatum. The experiment in a line: Antifungal activity against Fusarium proliferatum ATCC 10052 at 128 ug/ml by broth dilution method. The format is functional, organism-based.
Regarding `COc1cc(C=O)ccc1OCC(O)(Cn1cncn1)c1ccc(F)cc1F` (racemic), the result was inactive.

Regarding `OC(Cn1cncn1)(Cn1cncn1)c1ccc(F)cc1F` [FLUCONAZOLE], the outcome was inactive.

A further experiment relates to Fusarium proliferatum. Put plainly: Antifungal activity against Fusarium proliferatum ATCC 10052 at 4 ug/ml by broth dilution method. The format is functional, organism-based.
On to `O=C1OCC(c2ccc(F)cc2F)=C1c1ccc(Cl)c(Cl)c1`, for which the result was inactive.

In the case of `O=C1OC(c2ccccc2)=N/C1=C\c1ccc(OCC(O)(Cn2cncn2)c2ccc(F)cc2F)cc1` (racemic), the outcome was inactive.

For the molecule `COc1cc(/C=C2\N=C(c3ccccc3)OC2=O)ccc1OCC(O)(Cn1cncn1)c1ccc(F)cc1F` (racemic), the outcome was inactive.

For `O=C1O/C(=C\c2ccc(OCC(O)(Cn3cncn3)c3ccc(F)cc3F)cc2)C(c2ccc(F)cc2F)=C1c1ccc(Cl)c(Cl)c1` (racemic), the result was inactive.

On to `O=C1O/C(=C\c2ccc(OCC(O)(Cn3cncn3)c3ccc(F)cc3F)cc2)C(c2ccc(F)cc2F)=C1c1ccc(Cl)cc1` (racemic), for which the result was inactive.

These data come from ChEMBL document CHEMBL1817568, “Novel hybrids of fluconazole and furanones: design, synthesis and antifungal activity” (2011).
